Legend:
Assay type in all cases: functional
[1] = system: Colletotrichum gloeosporioides; assay: Antifungal activity against Colletotrichum gloeosporioides 20122-CECT assessed as inhibition of radial growth at 50 ug/mL at 25 degC measured after 5 days; settings: 120 h, read-out: GI
[2] = system: Botrytis cinerea; assay: Antifungal activity against Botryotinia fuckeliana 2100 assessed as inhibition of radial growth at 50 ug/mL at 25 degC measured after 5 days; settings: Botrytis cinerea, 2100, 120 h; read-out: GI
[3] = system: Botrytis cinerea; assay: Antifungal activity against Botryotinia fuckeliana 2100 assessed as inhibition of radial growth at 100 ug/mL at 25 degC measured after 5 days; settings: Botrytis cinerea, 2100, 120 h; read-out: GI
[4] = system: Colletotrichum gloeosporioides; assay: Antifungal activity against Colletotrichum gloeosporioides 20122-CECT assessed as inhibition of radial growth at 100 ug/mL at 25 degC measured after 5 days; settings: 120 h, read-out: GI
[5] = system: Botrytis cinerea; assay: Antifungal activity against Botryotinia fuckeliana 2100 assessed as inhibition of radial growth at 150 ug/mL at 25 degC measured after 5 days; settings: Botrytis cinerea, 2100, 120 h; read-out: GI
[6] = system: Colletotrichum gloeosporioides; assay: Antifungal activity against Colletotrichum gloeosporioides 20122-CECT assessed as inhibition of radial growth at 150 ug/mL at 25 degC measured after 5 days; settings: 120 h, read-out: GI
[7] = system: Botrytis cinerea; assay: Antifungal activity against Botryotinia fuckeliana 2100 assessed as inhibition of radial growth at 150 ug/mL at 25 degC measured after 4 days; settings: Botrytis cinerea, 2100, 96 h; read-out: GI
[8] = system: Colletotrichum gloeosporioides; assay: Antifungal activity against Colletotrichum gloeosporioides 20122-CECT assessed as inhibition of radial growth at 150 ug/mL at 25 degC measured after 4 days; settings: 96 h, read-out: GI
[9] = system: Colletotrichum gloeosporioides; assay: Antifungal activity against Colletotrichum gloeosporioides 20122-CECT assessed as inhibition of radial growth at 50 ug/mL at 25 degC measured after 4 days; settings: 96 h, read-out: GI
[10] = system: Colletotrichum gloeosporioides; assay: Antifungal activity against Colletotrichum gloeosporioides 20122-CECT assessed as inhibition of radial growth at 100 ug/mL at 25 degC measured after 4 days; settings: 96 h, read-out: GI

Compound	inhibition of growth at 50 µg/mL [1] [%]	inhibition of growth at 50 µg/mL [2] [%]	inhibition of growth at 100 µg/mL [3] [%]	inhibition of growth at 100 µg/mL [4] [%]	inhibition of growth at 150 µg/mL [5] [%]	inhibition of growth at 150 µg/mL [6] [%]	inhibition of growth at 150 µg/mL [7] [%]	inhibition of growth at 150 µg/mL [8] [%]	inhibition of growth at 50 µg/mL [9] [%]	inhibition of growth at 100 µg/mL [10] [%]
CC[C@@H](O)c1cccc(Cl)c1	34	72	80	60	86	65				
CC[C@H](O)c1cccc(Cl)c1	32	64	71	37	82	49				
OC(c1ccc(Cl)cc1)C1CC1 (racemic)	31	74	100	53	100	80				
Clc1ccc(/C=C/c2ccccc2)cc1	0			0		0	19			
O[C@H](c1ccc(Cl)cc1)C1CC1		63	80		97			27	20	23
CCC(O)c1cccc(Cl)c1 (racemic)	31	67	77	60	83	62				
CCC(=O)c1ccc(Cl)cc1	28	28	51	29	91	36				
O[C@@H](c1ccc(Cl)cc1)C1CC1	25	77	100	40	100	52				
CCC(O)c1ccc(Cl)cc1 (racemic)	28	61	77	41	95	51				
O=C(c1ccc(Cl)cc1)C1CC1 [(4-CHLOROPHENYL)(CYCLOPROPYL)METHANONE]	21	88	99	63	100	86				
CC[C@@H](OC(C)=O)c1cccc(Cl)c1	0	22	29	0	30	0				
O[C@H](c1ccccc1)c1ccc(Cl)cc1	73	99	100	94	100	100				
O[C@H](c1ccccc1)[C@H](O)c1ccc(Cl)cc1	22	32	59	42	62	51				
Clc1ccc(C2OC2c2ccccc2)cc1 (stereo not drawn)	0			0	28	0				
O[C@@H](c1ccccc1)c1ccc(Cl)cc1	66	91	100	85	100	96				
CC[C@@H](O)c1ccc(Cl)cc1	28	74	82	39	98	59				
OC(c1ccccc1)c1ccc(Cl)cc1 (racemic)	63	95	100	87	100	94				
O=C(Cc1ccccc1)c1ccc(Cl)cc1		31	33		38			17	9	13
CC[C@H](O)c1ccc(Cl)cc1	28	62	73	29	92	33				
CCC(=O)c1cccc(Cl)c1	22	26	49	28	91	42				
O[C@@H](c1ccccc1)[C@@H](O)c1ccc(Cl)cc1	27	33	63	52	68	62				
CC[C@@H](OC(C)=O)c1ccc(Cl)cc1	0	12	40	0	44	0				

Source: ChEMBL document CHEMBL3045974, “Global antifungal profile optimization of chlorophenyl derivatives against Botrytis cinerea and Colletotrichum gloeosporioides” (2009)
